The test system of data set [1] is isolated guinea pig ileum. It is filed as cell-based. More on the design: pA2 /GPI: activity class: scale not given here. Particulars: isolated guinea pig ileum; not quantitated. How it is done: (§1) The bradykinin antagonists were assayed on isolated rat uterus in natural or induced estrus and on guinea pig ileum, according to the commonly accepted assay methods for bradykinin and related kinins as described by Trautschold (Handbook of Expt. Pharmacol. Vol 25, Springer Verlag, pp. 53-55, 1970) for inhibition of the myotropic activity of bradykinin. The inhibition potencies, as determined according to the commonly accepted manner described by Schild for antagonists of biologically active compounds (Br. J. Pharmacol. 2:189, 1947), and expressed as pA2 values are determined on isolated rat uterus (RUT) and isolated guinea pig ileum (GPI). In the assays, a dose-response curve is determined for the reference substance bradykinin. The dose of bradykinin which produced a half maximal contraction of tissue is the ED50 dose. An amount of bradykinin equivalent to twice the ED50 dose is administered to the tissue 30 seconds after the start of incubation of the tissue with a dose of antagonist. Doses of antagonist are increased in this protocol until pre-incubation with a dose of antagonist reduces the contraction in response to the double ED50 dose of bradykinin to response of a single ED50 dose of bradykinin. The pA2 value represents the negative logarithm of the molar concentration of antagonist necessary to reduce the response of a double ED50 dose of bradykinin to that of an ED50 dose. One unit of pA2 value represents an order of magnitude change in potency. For comparison, the negative log of the dose of BK, the dose which causes half maximal contraction of the tissues, is commonly known as the pD2 value. The pD2 value for bradykinin is 7.9 on the rat uterus and 7.4 on the guinea pig ileum.

The test system of a further data set is isolated rat uterus. Type of data set: cell-based. How it is done:
as §1

Another data set has as its system rat blood pressure. Nature of the data set: effects on blood pressure in the anesthetized rat (RBP), intraaortic and intravenous bolus. It is filed as in vivo. Details: RBP-IA: activity class / RBP-IV: activity class: scale not given here. How it is done:
The in vivo effects of bradykinin antagonists on blood pressure in the anesthetized rat are determined according to the assay described by Roblero, Ryan and Stewart (Res. Commun. Pathol. Pharmacol. 6:207, 1973). The antagonists also produce inhibition of the bradykinin response when injected as a bolus admixture of bradykinin plus antagonist by either the ia or iv route of administration.

Where [2] appears, read: rat blood pressure, intraaortic bolus.
[3] abbreviates: rat blood pressure, intravenous bolus.

Here are results for 15 compounds from patent publication US4923963A, “Bradykinin antagonist peptides” (Nova Technology Limited Partnership, priority 1987, dated 1990).

Like-named read-outs stand apart in the source and are kept apart here. Square brackets hold non-standard residues; d marks the D form. Peptide text beside a SMILES is read from it. dPhe(4-Cl) = N[C@H](Cc1ccc(Cl)cc1)C(=O)O; dPhe(4-F) = N[C@H](Cc1ccc(F)cc1)C(=O)O; d2Nal = N[C@H](Cc1ccc2ccccc2c1)C(=O)O; Hyp = O=C(O)[C@@H]1C[C@@H](O)CN1; 2Thi = N[C@@H](Cc1cccs1)C(=O)O; d2Thi = N[C@H](Cc1cccs1)C(=O)O

Turning to `N=C(N)NCCC[C@H](NC(=O)[C@H](Cc1cccs1)NC(=O)[C@@H](Cc1ccccc1)NC(=O)[C@H](CO)NC(=O)[C@H](Cc1cccs1)NC(=O)CNC(=O)[C@@H]1CCCN1C(=O)[C@@H]1CCCN1C(=O)[C@@H](Cc1ccc2ccccc2c1)NC(=O)[C@H](CCCCN)NC(=O)[C@@H](N)CCCCN)C(=O)O` [Example 24, Lys-Lys-DNal-Pro-Pro-Gly-Thi-Ser-DPhe-Thi-Arg] (H-KK[d2Nal]PPG[2Thi]S[dF][2Thi]R-OH), the “pA2 /GPI: activity class” value in data set [1] was 0.
For `N=C(N)NCCC[C@@H](N)C(=O)N[C@H](Cc1ccc(Cl)cc1)C(=O)N1CCC[C@H]1C(=O)N1CCC[C@H]1C(=O)NCC(=O)N[C@@H](Cc1ccccc1)C(=O)N[C@@H](CO)C(=O)N[C@H](Cc1cccs1)C(=O)N[C@@H](Cc1ccccc1)C(=O)N[C@@H](CCCNC(=N)N)C(=O)O` [Example 7, DArg-CDF-Pro-Pro-Gly-Phe-Ser-DThi-Phe-Arg] (H-[dR][dPhe(4-Cl)]PPGFS[d2Thi]FR-OH), the “pA2 /RUT: activity class” value in the data set on isolated rat uterus (isolated rat uterus, not quantitated) turned out to be 0. Also, in the data set with rat blood pressure (setting [2]), the “RBP-IA: activity class” value was 0. Besides, the “RBP-IV: activity class” value in the data set on rat blood pressure (setting [3]) is listed as 0.
Turning to `N=C(N)NCCC[C@H](NC(=O)[C@H](CCCCN)NC(=O)[C@@H](N)CCCCN)C(=O)N1CCC[C@H]1C(=O)N1CCC[C@H]1C(=O)NCC(=O)N[C@@H](Cc1cccs1)C(=O)N[C@@H](CO)C(=O)N[C@H](Cc1ccccc1)C(=O)N[C@@H](Cc1cccs1)C(=O)N[C@H](CCCNC(=N)N)C(N)=O` [Example 58, Lys-Lys-Arg-Pro-Pro-Gly-Thi-Ser-DPhe-Thi-DArg-NH2] (H-KKRPPG[2Thi]S[dF][2Thi][dR]-NH2), the “pA2 /RUT: agonist potency as percent of BK potency” value (“pA2 /RUT … as percent of BK potency” for short) in the data set with isolated rat uterus was found to be 0.02%. Moreover, in the data set with rat blood pressure (rat, in vivo), the “% DESTR (metabolic breakdown of BK-like agonists in RBP assay)” value (from here on “% DESTR”) is reported as 60% and the “RBP-IA: agonist potency as percent of BK potency” value (from here on “RBP-IA … as percent of BK potency”) came out at 0.2%. The “RBP-IV: agonist potency as percent of BK potency” value (“RBP-IV … as percent of BK potency” below) with rat blood pressure (rat, in vivo, iv) turned out to be 3%.
Consider `N=C(N)NCCC[C@H](NC(=O)[C@H](Cc1ccccc1)NC(=O)[C@@H](Cc1ccccc1)NC(=O)[C@H](CO)NC(=O)[C@H](Cc1ccccc1)NC(=O)CNC(=O)[C@@H]1C[C@@H](O)CN1C(=O)[C@@H]1CCCN1C(=O)[C@H](N)Cc1ccc(Cl)cc1)C(=O)O` [Example 3, CDF-Pro-Hyp-Gly-Phe-Ser-DPhe-Phe-Arg] (H-[dPhe(4-Cl)]P[Hyp]GFS[dF]FR-OH), for which the “pA2 /GPI: activity class” value in data set [1] worked out at 0.
For `N=C(N)NCCC[C@H](N)C(=O)N1CCC[C@H]1C(=O)N1CCC[C@H]1C(=O)NCC(=O)N[C@@H](Cc1cccs1)C(=O)N[C@@H](CO)C(=O)N[C@H](Cc1ccccc1)C(=O)N[C@@H](Cc1cccs1)C(=O)N[C@H](CCCNC(=N)N)C(N)=O` [Example 55, Arg-Pro-Pro-Gly-Thi-Ser-DPhe-Thi-DArg-NH2] (H-RPPG[2Thi]S[dF][2Thi][dR]-NH2), in the data set on isolated rat uterus, the “pA2 /RUT … as percent of BK potency” value is given as 0.01%. For the same compound, in the data set on rat blood pressure (rat, in vivo), the “% DESTR” value stood at 61% and the “RBP-IA … as percent of BK potency” value is 0.1%. The “RBP-IV … as percent of BK potency” value with rat blood pressure (rat, in vivo, iv) is 0.9%.
As to `N=C(N)NCCC[C@H](NC(=O)[C@H](Cc1ccccc1)NC(=O)[C@@H](Cc1ccccc1)NC(=O)[C@H](CO)NC(=O)[C@H](Cc1ccccc1)NC(=O)CNC(=O)[C@@H]1C[C@@H](O)CN1C(=O)[C@@H]1CCCN1C(=O)[C@H](N)Cc1ccc(F)cc1)C(=O)O` [Example 11, FDF-Pro-Hyp-Gly-Phe-Ser-DPhe-Phe-Arg] (H-[dPhe(4-F)]P[Hyp]GFS[dF]FR-OH), the “pA2 /GPI: activity class” value in data set [1] was 0.
For `N=C(N)NCCC[C@@H](N)C(=O)N[C@H](Cc1cccs1)C(=O)N1CCC[C@H]1C(=O)N1C[C@H](O)C[C@H]1C(=O)NCC(=O)N[C@@H](Cc1ccccc1)C(=O)N[C@@H](CO)C(=O)N[C@H](Cc1cccs1)C(=O)N[C@@H](Cc1ccccc1)C(=O)N[C@@H](CCCNC(=N)N)C(=O)O` [Example 36, DArg-DThi-Pro-Hyp-Gly-Phe-Ser-DThi-Phe-Arg] (H-[dR][d2Thi]P[Hyp]GFS[d2Thi]FR-OH), in data set [1], the “pA2 /GPI: activity class” value came to 0.
Consider `CC[C@@H](C)[C@@H](NC(=O)[C@H](CCCNC(=N)N)NC(=O)[C@H](Cc1cccs1)NC(=O)[C@@H](Cc1ccccc1)NC(=O)[C@H](CO)NC(=O)[C@H](Cc1cccs1)NC(=O)CNC(=O)[C@@H]1C[C@@H](O)CN1C(=O)[C@@H]1CCCN1C(=O)[C@@H](N)CCCNC(=N)N)C(=O)N[C@@H](Cc1ccc(O)cc1)C(=O)O` [Example 73, Arg-Pro-Hyp-Gly-Thi-Ser-DPhe-Thi-Arg-DIle-Tyr] (H-RP[Hyp]G[2Thi]S[dF][2Thi]R[dI]Y-OH), for which the “pA2 /RUT … as percent of BK potency” value in the data set with isolated rat uterus (isolated rat uterus) came to 0.04%.
Consider `N=C(N)NCCC[C@H](NC(=O)[C@H](Cc1cccs1)NC(=O)[C@@H](Cc1ccccc1)NC(=O)[C@H](CO)NC(=O)[C@H](Cc1cccs1)NC(=O)CNC(=O)[C@@H]1CCCN1C(=O)[C@@H]1CCCN1C(=O)[C@H](CCCNC(=N)N)NC(=O)[C@H](CCCCN)NC(=O)[C@@H](N)CCCCN)C(N)=O` [Example 54, Lys-Lys-Arg-Pro-Pro-Gly-Thi-Ser-DPhe-Thi-Arg-NH2] (H-KKRPPG[2Thi]S[dF][2Thi]R-NH2), for which the “pA2 /RUT … as percent of BK potency” value in the data set on isolated rat uterus is recorded as 0.02%.
Regarding `N=C(N)NCCC[C@H](NC(=O)[C@H](Cc1cccs1)NC(=O)[C@@H](Cc1ccccc1)NC(=O)[C@H](CO)NC(=O)[C@H](Cc1cccs1)NC(=O)CNC(=O)[C@@H]1CCCN1C(=O)[C@@H]1CCCN1C(=O)[C@H](N)Cc1ccc2ccccc2c1)C(=O)O` [Example 22, DNal-Pro-Pro-Gly-Thi-Ser-DPhe-Thi-Arg] (H-[d2Nal]PPG[2Thi]S[dF][2Thi]R-OH), the “pA2 /RUT (antagonist potency)” value in the data set on isolated rat uterus was 5.6.
Take `N=C(N)NCCC[C@@H](N)C(=O)N[C@H](Cc1ccc2ccccc2c1)C(=O)N1CCC[C@H]1C(=O)N1CCC[C@H]1C(=O)NCC(=O)N[C@@H](Cc1cccs1)C(=O)N[C@@H](CO)C(=O)N[C@H](Cc1ccccc1)C(=O)N[C@@H](Cc1cccs1)C(=O)N[C@@H](CCCNC(=N)N)C(=O)O` [Example 23, DArg-DNal-Pro-Pro-Gly-Thi-Ser-DPhe-Thi-Arg] (H-[dR][d2Nal]PPG[2Thi]S[dF][2Thi]R-OH): the “pA2 /RUT (antagonist potency)” value in the data set on isolated rat uterus amounted to 5.8.
Take `CC[C@H](C)[C@H](NC(=O)[C@H](CCCNC(=N)N)NC(=O)[C@H](Cc1cccs1)NC(=O)[C@@H](Cc1ccccc1)NC(=O)[C@H](CO)NC(=O)[C@H](Cc1cccs1)NC(=O)CNC(=O)[C@@H]1CCCN1C(=O)[C@@H]1CCCN1C(=O)[C@@H](N)CCCNC(=N)N)C(=O)N[C@@H](Cc1ccc(O)cc1)C(=O)O` [Example 65, Arg-Pro-Pro-Gly-Thi-Ser-DPhe-Thi-Arg-Ile-Tyr] (H-RPPG[2Thi]S[dF][2Thi]RIY-OH): the “pA2 /RUT … as percent of BK potency” value with isolated rat uterus (isolated rat uterus) came out at 0.5%. Further, the “RBP-IA … as percent of BK potency” value in the data set on rat blood pressure (setting [2]) was 0.06%. In addition, the “RBP-IV … as percent of BK potency” value in the data set on rat blood pressure (setting [3]) is given as 6%. Further, the “% DESTR” value in the data set on rat blood pressure (relative to BK = 100%) was 0%.
For `CC[C@H](C)[C@H](NC(=O)[C@H](CCCNC(=N)N)NC(=O)[C@H](Cc1ccccc1)NC(=O)[C@@H](Cc1ccccc1)NC(=O)[C@H](CO)NC(=O)[C@H](Cc1ccccc1)NC(=O)CNC(=O)[C@@H]1CCCN1C(=O)[C@@H]1CCCN1C(=O)[C@@H](N)CCCNC(=N)N)C(=O)N[C@@H](Cc1ccc(O)cc1)C(=O)O` [Example 63, Arg-Pro-Pro-Gly-Phe-Ser-DPhe-Phe-Arg-Ile-Tyr] (H-RPPGFS[dF]FRIY-OH) the same measures were 0.6%, 0.2%, 2% and 70%.
As to `N=C(N)NCCC[C@H](NC(=O)[C@H](Cc1cccs1)NC(=O)[C@@H](Cc1ccccc1)NC(=O)[C@H](CO)NC(=O)[C@H](Cc1cccs1)NC(=O)CNC(=O)[C@@H]1CCCN1C(=O)[C@@H]1CCCN1C(=O)[C@@H](N)CCCNC(=N)N)C(N)=O` [Example 51, Arg-Pro-Pro-Gly-Thi-Ser-DPhe-Thi-Arg-NH2] (H-RPPG[2Thi]S[dF][2Thi]R-NH2), in the data set on isolated rat uterus, the “pA2 /RUT … as percent of BK potency” value was 0.02%. In the data set with rat blood pressure (rat, in vivo), the “% DESTR” value is recorded as 52% and the “RBP-IA … as percent of BK potency” value was found to be 0.05%. The “RBP-IV … as percent of BK potency” value in the data set on rat blood pressure (rat, in vivo, iv) is 2%.
`CC[C@H](C)[C@H](NC(=O)[C@H](CCCNC(=N)N)NC(=O)[C@H](Cc1cccs1)NC(=O)[C@@H](Cc1ccccc1)NC(=O)[C@H](CO)NC(=O)[C@H](Cc1cccs1)NC(=O)CNC(=O)[C@@H]1C[C@@H](O)CN1C(=O)[C@@H]1CCCN1C(=O)[C@@H](N)CCCNC(=N)N)C(=O)N[C@@H](Cc1ccc(O)cc1)C(=O)O` [Example 67, Arg-Pro-Hyp-Gly-Thi-Ser-DPhe-Thi-Arg-Ile-Tyr] (H-RP[Hyp]G[2Thi]S[dF][2Thi]RIY-OH): the “pA2 /RUT … as percent of BK potency” value in the data set with isolated rat uterus (isolated rat uterus) is 0.06%.
